Experimental data published in patent US20220031849A1, “NANOPARTICLE ENCAPSULATION TO TARGET G PROTEIN-COUPLED RECEPTORS IN ENDOSOMES” (TAKEDA PHARMACEUTICAL COMPANY LIMITED, priority 2018, published 2022).
Ends that are not written are not given here.

Columns and labels:
HEK-293 cells = test: Uptake and disassembly of Coumarin 153 loaded nanoparticles; type: cell-based; conditions: 30 min pre-incubation with inhibitor
Text: The uptake and disassembly of DIPMA nanoparticles loaded with Coumarin153 (DIPMA-CO), which emits in an aqueous environment but not in the hydrophobic core, were examined by high content imaging (confocal microscopy).
Uptake and disassembly of nanoparticles in HEK-293 cells. Coumarin 153 is a solvatochromic dye that fluoresces only in polar solvents, allowing detection of the release of Coumarin loaded in the core of nanoparticles observed as the appearance of Coumarin fluorescence in intact cells. nanoparticles were self-assembled using 0.5 mg of Coumarin 153 per mg of DIPMA polymer (DIPMA-CO). HEK-293 cells were pre-incubated for 30 min with vehicle (Hank's Balanced Salt Solution, HBSS), dynamin inhibitor (Dyngo4a, Dy4, 30 μM), clathrin inhibitor (Pitstop, PS2, 30 μM), vacuolar H^+ATPase inhibitor (Bafilomycin A1, BFA, 1 μM) or NH4Cl (20 mM) to alkalinize endosomes. Images were obtained with a Leica SP8 confocal microscope using HCX PL APO 63× (NA […]) oil objective. Images were taken every 10 see for 30 min, where the first 5 readings correspond to baseline images prior the addition of DIPMA-CO nanoparticles (20 μg/mL). All images were analyzed using Fiji.

[1] = tested on: CFA-evoked mechanical hyperalgesia in mice; test: Complete Freund's adjuvant-evoked mechanical hyperalgesia, von Frey filaments; type: in vivo; conditions: for Inhibition of CFA hyperalgesia at 1.5 h: 5 μl i.t., 48 h after CFA
[2] = tested on: C-fiber reflex and wind-up in SNS rats; test: C-fiber-evoked nociceptive reflex and wind-up in SNS rats; type: in vivo; conditions: 10 μl, 1 μM intrathecal
[3] = tested on: SNS-evoked mechanical hyperalgesia in rats; test: Sural nerve spared (SNS) mechanical hyperalgesia, Randall-Selitto; type: in vivo
[4] = tested on: chronic pain model in rats; test: Chronic pain model by ligation of the sciatic nerve, Randall-Selitto (Example 10); type: in vivo; conditions: 300 nM aprepitant, i.t. 10 μL
Text: The chronic pain model was induced by ligation of the sciatic nerve, allowing sensitisation to pain (allodynia, hyperalgesia) to develop for 10 days. Sensitisation was confirmed measuring baseline (pre-surgery) and post-surgery paw withdrawal using a Randall-Selitto electronic algesimeter (Eva Santos-Nogueira, et al. J Neurotrauma. 2012, 29(5): 898-904). […] As is evident, aprepitant-loaded nanoparticles provide greater analgesia and longer lasting effects.

[5] = tested on: capsaicin-evoked mechanical allodynia in mice; test: Capsaicin-evoked mechanical allodynia, von Frey filaments; type: in vivo; conditions: for Time at which the effect is lost / not detected: i.t.
Description: However, the same behaviour on the decay of the effect was observed.
AP, nanoparticles or vehicle (5 μl) was administered by intrathecal injection to mice 30 min before intraplantar injection to the hind paw of capsaicin, which activates TRPV1 to cause acute allodynia and neurogenic inflammation. Withdrawal responses to stimulation of the plantar surface of the injected hindpaw with calibrated von Frey filaments (VFF) were measured before and after capsaicin. In mice receiving vehicle or DIPMA-empty nanoparticles, capsaicin decreased the VFF threshold from 0.5-4 h, consistent with mechanical allodynia, which returned to baseline after 24 h (FIG. 18B).
Drug administration. Mice. […] Rats. […] Treatments were administered 10 days after sural nerve transection.
Acute pain. Capsaicin (CAP, 5 μg) or vehicle (0.9% NaCl) was administered by subcutaneous intraplantar (i.pl.) injection (10 μL) into the left hindpaw of sedated mice (2% isoflurane) 30 min after i.t. injection of drugs.
Mechanical allodynia and hyperalgesia. Mechanical nociception was assessed by measuring withdrawal thresholds to stimulation of the plantar surfaces of the ipsilateral and contralateral hindpaws with calibrated von Frey filaments (VFF). Prior to experiments, mice were acclimatized to the experimental apparatus and environment for 2 h on 2 successive days. VFF withdrawal thresholds were measured in triplicate to establish a baseline for each mouse. For the CAP model, VFF withdrawal thresholds were measured at 30 min intervals for the first 2 h after i.t. drug administration, then at 60 min intervals for the next 2 h, and finally after 24 h. For the CFA model, VFF withdrawal thresholds were measured every 30 min for the first 3 h after i.t. drug administration, then at 60 min intervals for the next 5 h, and finally after 24 h. Results were normalized to the baseline withdrawal thresholds of each mouse.

[6] = tested on: NK1R-positive lamina I neurons; test: Cell-attached patch clamp of SP-induced excitation in rat spinal cord slices; type: cell-based; conditions: 100 nM AP preincubation, washed; SP 1 μM, 2 min
Description: The firing time was determined as the duration of the response to last action potential.

[7] = tested on: CFA-induced mechanical hyperalgesia; conditions: Proc. Natl. Acad. Sci. USA. 114(46):12309-12314; cited from earlier work

## CO/C1=C\C(C)=C\[C@@H](C)[C@@H](O)[C@@H](C)C/C(C)=C/C=C/[C@H](OC)[C@@H]([C@@H](C)[C@@H](O)[C@H](C)[C@@]2(O)C[C@@H](O)[C@H](C)[C@@H](C(C)C)O2)OC1=O [Bafilomycin A1]
HEK-293 cells
  Effect of inhibitor on cellular fluorescence of DIPMA-CO nanoparticles: suppressed fluorescence
HEK-293 cells; listed as Bafilomycin A
  Effect of inhibitor on cellular fluorescence of DIPMA-CO nanoparticles: inhibited the accumulation of Coumarin 153 cellular fluorescence

## O=C(N/N=C/c1cc(O)c(O)cc1O)c1cc2ccccc2cc1O [Dyngo4a]
HEK-293 cells
  Effect of inhibitor on cellular fluorescence of DIPMA-CO nanoparticles: inhibited the accumulation of Coumarin 153 cellular fluorescence

## Cl.N [NH4Cl]
HEK-293 cells
  Effect of inhibitor on cellular fluorescence of DIPMA-CO nanoparticles: suppressed fluorescence

## O=C1NC(=NS(=O)(=O)c2cccc3ccccc23)S/C1=C\c1ccc(Br)cc1 [PitStop2]
HEK-293 cells
  Effect of inhibitor on cellular fluorescence of DIPMA-CO nanoparticles: inhibited the accumulation of Coumarin 153 cellular fluorescence

## C[C@@H](O[C@H]1OCCN(Cc2nc(=O)[nH][nH]2)[C@H]1c1ccc(F)cc1)c1cc(C(F)(F)F)cc(C(F)(F)F)c1 [aprepitant, 5-([(2R,3S)-2-((R)-1-[3,5-Bis(trifluoromethyl)phenyl]ethoxy)-3-(4-fluorophenyl)morpholino]methyl)-1H-1,2,4-triazol-3(2H)-one]
[1]; 100 nM AP
  Inhibition of CFA hyperalgesia at 1.5 h: 30±6%
[1]; 300 nM AP
  Inhibition of CFA hyperalgesia at 1.5 h: 47±3%
[1]; free AP 100 or 300 nM, DIPMA-AP 100 nM AP, i.t.
  Duration of reversal of hyperalgesia: 2 to 3 h
[2]
  Effect on C-reflex: decreased the C-reflex, but only at 30 min
  Effect on wind-up: did not affect wind-up
[3]; 10 μl i.t., 100 nM, 10 days after SNS
  Effect on withdrawal threshold: did not modify withdrawal threshold
[3]; 10 μl i.t., 300 nM
  Maximum inhibition of hyperalgesia, after 1 h: 40±2%
[3]; i.t., 300 nM
  Time of return to baseline: 2.5 h
[3]; i.t., 1 μM
  Inhibition of hyperalgesia after 1 h: 75±4%
  Time of return to baseline: 3 h
[4]
  Duration of effect: 2 h
  Improvement in pressure, Randall-Selitto: 20 g
  Pain recovery: ~25%
[5]; 5 μl i.t., 100 nM AP, 30 min before capsaicin
  Inhibition of capsaicin-evoked allodynia at 1 h: 16±4%
[5]; 100 nM AP
  Time at which the effect is lost / not detected: 3 h
[5]; 100 nM AP, listed as AP
  Time at which the effect is lost / not detected: 1.5 h
[5]; single i.t. dose 30 minutes prior to capsaicin (Example 9)
  Analgesia on the first hour: 30%
[6]
  Effect on SP-induced firing of spinal neurons: did not affect the onset, rate or duration of SP-induced firing

## CN1CC[C@]23c4c5ccc(O)c4O[C@H]2[C@@H](O)C=C[C@H]3[C@H]1C5 [morphine]
[1]; 3 mg/kg, i.p.
  Effect on mechanical hyperalgesia after 0.5 h: fully reversed the mechanical hyperalgesia
  Time at which the effect waned to baseline: 3 h
[3]; morphine
  Duration of full reversal of hyperalgesia: 2 h
  Time after which the effect was absent: 2.5 h

## CGRP8-37-Chol: cholestanol conjugate of CGRP8-37 (VTHRLAGLLSRSGGVVKNNFVPTNVGSKAF; ends and bridges not checked; also: cholestanol conjugate; UniProt P06881 90-119, looked up, fragment)
[7]
  Reversal of mechanical hyperalgesia: ~20%

## CGRP8-37: a membrane-impermeant CLR antagonist (VTHRLAGLLSRSGGVVKNNFVPTNVGSKAF; ends and bridges not checked; UniProt P06881 90-119, looked up, fragment)
[7]
  Reversal of mechanical hyperalgesia: not
